# Assay results from patent US11000488B2 (priority 2019, dated 2021).
# Where two headings read alike, the source gives them in different places.
# Experiments:
# [1] = human, in vivo, cited from earlier work
# [2] = steady-state pharmacokinetics, 50 mg tramadol vs 20 mg desmetramadol every 6 hours, nine doses, trials A and B (B with paroxetine); details: after tramadol dosing, with vs without paroxetine
# [3] = respiration and other vital signs, trials A and B; details: trial A
# cold-induced pain = experiment: cold pressor test (cold-induced pain), trials A and B; type: in vivo, human
# [4] = single dose 100 mg racemic tramadol, cited from earlier work
# [5] = drug-related adverse events, safety population, trials A and B
# pupil diameter = experiment: pupillometry, trial A; type: in vivo, human; details: after dosing
# [6] = trial A (n = 43, males), 0-10 VAS
# [7] = trial B (n = 18, females), with paroxetine
# [8] = trial B (n = 18, females), with paroxetine, 0-10 VAS
# [9] = trial B (n = 42, males), with paroxetine
# [10] = trial B (n = 42, males), with paroxetine, 0-10 VAS
smiles,measurement,setting,value
COc1ccc2c3c1O[C@H]1C(=O)CC[C@@]4(O)[C@@H](C2)N(C)CC[C@]314 [oxycodone],lethal oral dose,[1],40 mg
"COc1cccc(C2(O)CCCCC2CN(C)C)c1 (single isomer, unassigned; (-)) [(−)-tramadol, 1S,2S-tramadol, reference compound]",levels in trial B as % of levels in trial A,[2],200%
"COc1cccc([C@@]2(O)CCCC[C@@H]2CN(C)C)c1 [(+)-tramadol, 1R,2R-tramadol, reference compound]",levels in trial B as % of levels in trial A,[2],200%
COc1ccc2c3c1O[C@H]1C(=O)CC[C@H]4[C@@H](C2)N(C)CC[C@]314 [hydrocodone],lethal oral dose,[1],90 mg
COc1cccc(C2(O)CCCCC2CN(C)C)c1 (racemic) [tramadol],pre-dose versus post-dose effect on respiratory rate compared to placebo or each other,[3],no discernable pre-dose versus post-dose effect
same,average duration of tolerance to pain,cold-induced pain; trial A,62 s
same,"Time to first pain, mean difference versus placebo","cold-induced pain; trial A (n = 43, males)",2.1 s
same,"Time to withdrawal, mean difference versus placebo","cold-induced pain; trial A (n = 43, males)",12.4 (4.4) seconds
same,"Pain intensity at 30 seconds, MPD versus placebo",cold-induced pain; [6],−0.46
same,"Pain intensity at first perception, MPD versus placebo",cold-induced pain; [6],−0.21
same,"Time to withdrawal, mean difference versus placebo","cold-induced pain; trial A (n = 43, males), listed as TRAMADOL",12.4 s
same,Average (SD) subject-reported pain scores at 30 seconds,"cold-induced pain; trial A, 0-10 VAS",6.0 (1.7)
same,"Time to first pain, MPD versus placebo",cold-induced pain; [7],2.6 s
same,"Time to withdrawal, MPD versus placebo",cold-induced pain; [7],7.5 s
same,"Pain intensity at 30 seconds, MPD versus placebo",cold-induced pain; [8],0.03
same,"Pain intensity at first perception, MPD versus placebo",cold-induced pain; [8],0.01
same,"Time to first pain, MPD versus placebo",cold-induced pain; [9],1.5 s
same,"Time to withdrawal, MPD versus placebo",cold-induced pain; [9],6.9 (1.6) seconds
same,"Pain intensity at 30 seconds, MPD versus placebo",cold-induced pain; [10],failed to statistically differentiate from placebo
same,"Pain intensity at first perception, MPD versus placebo",cold-induced pain; [10],−0.08
same,"Pain intensity at 30 seconds, MPD versus placebo","cold-induced pain; trial B (n = 42, males), with paroxetine, 0-10 VAS, listed as TRAMADOL",−0.25
same,"Time to withdrawal, MPD versus placebo","cold-induced pain; trial B (n = 42, males), with paroxetine, listed as TRAMADOL",6.9 s
same,lethal dose,[1],> 5 grams
same,subjects experiencing nausea,[4]; EM group (11 EMs),9%
same,subjects experiencing nausea,[4]; UM group (11 UMs),~50%
same,Deaths,[5]; trial A,0 (0) N (%)
same,Severe AEs,[5]; trial A,0 (0) N (%)
same,subjects reporting drug-related AEs,[5]; trial A,49%
same,All AEs,[5]; trial A (N = 43),20 (49) N (%)
same,Dizziness,"[5]; trial A, all subjects",5 (12) N (%)
same,Euphoria,"[5]; trial A, all subjects",0 (0) N (%)
same,Feel abnormal,"[5]; trial A, all subjects",1 (2) N (%)
same,Feel hot,"[5]; trial A, all subjects",0 (0) N (%)
same,Headache,"[5]; trial A, all subjects",7 (17) N (%)
same,Nausea,"[5]; trial A, all subjects",5 (12) N (%)
same,Presyncope,"[5]; trial A, all subjects",0 (0) N (%)
same,Pruritus,"[5]; trial A, all subjects",4 (10) N (%)
same,Somnolence,"[5]; trial A, all subjects",2 (5) N (%)
same,Spasticity,"[5]; trial A, all subjects",1 (2) N (%)
same,Sweating,"[5]; trial A, all subjects",0 (0) N (%)
same,Vomiting,"[5]; trial A, all subjects",1 (2) N (%)
same,Dizziness,"[5]; trial A, male",5 (12) N (%)
same,Euphoria,"[5]; trial A, male",0 (0) N (%)
same,Feel abnormal,"[5]; trial A, male",1 (2) N (%)
same,Feel hot,"[5]; trial A, male",0 (0) N (%)
same,Headache,"[5]; trial A, male",7 (17) N (%)
same,Nausea,"[5]; trial A, male",5 (12) N (%)
same,Presyncope,"[5]; trial A, male",0 (0) N (%)
same,Pruritus,"[5]; trial A, male",4 (10) N (%)
same,Somnolence,"[5]; trial A, male",2 (5) N (%)
same,Spasticity,"[5]; trial A, male",1 (2) N (%)
same,Sweating,"[5]; trial A, male",0 (0) N (%)
same,Vomiting,"[5]; trial A, male",1 (2) N (%)
same,Deaths,[5]; trial B,0 (0) N (%)
same,Severe AEs,[5]; trial B,0 (0) N (%)
same,All AEs,"[5]; trial B (N = 60), with paroxetine",30 (50) N (%)
same,Dizziness,"[5]; trial B, all subjects",8 (13) N (%)
same,Euphoria,"[5]; trial B, all subjects",1 (2) N (%)
same,Feel abnormal,"[5]; trial B, all subjects",2 (3) N (%)
same,Feel hot,"[5]; trial B, all subjects",0 (0) N (%)
same,Headache,"[5]; trial B, all subjects",6 (10) N (%)
same,Nausea,"[5]; trial B, all subjects",8 (13) N (%)
same,Presyncope,"[5]; trial B, all subjects",1 (2) N (%)
same,Pruritus,"[5]; trial B, all subjects",1 (2) N (%)
same,Somnolence,"[5]; trial B, all subjects",4 (7) N (%)
same,Spasticity,"[5]; trial B, all subjects",3 (5) N (%)
same,Sweating,"[5]; trial B, all subjects",1 (2) N (%)
same,Vomiting,"[5]; trial B, all subjects",2 (3) N (%)
same,Dizziness,"[5]; trial B, female",4 (22) N (%)
same,Euphoria,"[5]; trial B, female",0 (0) N (%)
same,Feel abnormal,"[5]; trial B, female",0 (0) N (%)
same,Feel hot,"[5]; trial B, female",0 (0) N (%)
same,Headache,"[5]; trial B, female",6 (33) N (%)
same,Nausea,"[5]; trial B, female",2 (11) N (%)
same,Presyncope,"[5]; trial B, female",0 (0) N (%)
same,Pruritus,"[5]; trial B, female",1 (6) N (%)
same,Somnolence,"[5]; trial B, female",2 (11) N (%)
same,Spasticity,"[5]; trial B, female",0 (0) N (%)
same,Sweating,"[5]; trial B, female",0 (0) N (%)
same,Vomiting,"[5]; trial B, female",0 (0) N (%)
same,Dizziness,"[5]; trial B, male",4 (10) N (%)
same,Euphoria,"[5]; trial B, male",1 (2) N (%)
same,Feel abnormal,"[5]; trial B, male",2 (5) N (%)
same,Feel hot,"[5]; trial B, male",0 (0) N (%)
same,Headache,"[5]; trial B, male",0 (0) N (%)
same,Nausea,"[5]; trial B, male",6 (14) N (%)
same,Presyncope,"[5]; trial B, male",1 (2) N (%)
same,Pruritus,"[5]; trial B, male",0 (0) N (%)
same,Somnolence,"[5]; trial B, male",2 (5) N (%)
same,Spasticity,"[5]; trial B, male",3 (7) N (%)
same,Sweating,"[5]; trial B, male",1 (2) N (%)
same,Vomiting,"[5]; trial B, male",2 (5) N (%)
same,"headache, tramadol AE profile compared to the desmetramadol AE profile","[5]; trial B, same subjects",−40%
same,"nausea, tramadol AE profile compared to the desmetramadol AE profile","[5]; trial B, same subjects",−50%
same,"presyncope, tramadol AE profile compared to the desmetramadol AE profile","[5]; trial B, same subjects",−83%
same,"pruritus, tramadol AE profile compared to the desmetramadol AE profile","[5]; trial B, same subjects",−75%
same,"somnolence, tramadol AE profile compared to the desmetramadol AE profile","[5]; trial B, same subjects",−60%
same,"vomiting, tramadol AE profile compared to the desmetramadol AE profile","[5]; trial B, same subjects",−78%
same,subjects reporting drug-related AEs,"[5]; trial B, with paroxetine",50%
same,"pupil diameter, mean paired reduction [SD] compared to placebo",pupil diameter,−0.7 (0.6) millimeters
